According to patent publication US20220227707A1, “COMPOUNDS AND COMPOSITIONS FOR TREATING CONDITIONS ASSOCIATED WITH NLRP ACTIVITY” (Novartis AG, priority 2019, published 2022):

What follows are molecules tested on IL-1β production in PMA-differentiated THP-1 cells (assay: IL-1β production in PMA-differentiated THP-1 cells stimulated with gramicidin (hTHP-1 assay)). Details: Average IC50, hTHP-1 assay containing 2% fetal bovine serum; Table 10, class symbols.
Assay type: cell-based, human
Experimental: Procedure 1: IL-1β Production in PMA-Differentiated THP-1 Cells Stimulated with Gramicidin
THP-1 cells were purchased from the American Type Culture Collection and sub-cultured according to instructions from the supplier. Cells were cultured in complete RPMI 1640 (containing 10% heat inactivated FBS, penicillin (100 units/ml) and streptomycin (100 μg/ml)), and maintained in log phase prior to experimental setup. Prior to the experiment, compounds were dissolved in dimethyl sulfoxide (DMSO) to generate a 30 mM stock. The compound stock was first pre-diluted in DMSO to 3, 0.34, 0.042 and 0.0083 mM intermediate concentrations and subsequently spotted using Echo550 liquid handler into an empty 384-well assay plate to achieve desired final concentration (e.g. 100, 33, 11, 3.7, 1.2, 0.41, 0.14, 0.046, 0.015, 0.0051, 0.0017 μM). DMSO was backfilled in the plate to achieve a final DMSO assay concentration of 0.37%. The plate was then sealed and stored at room temperature until required.
THP-1 cells were treated with PMA (Phorbol 12-myristate 13-acetate) (20 ng/ml) for 16-18 hours. On the day of the experiment the media was removed and adherent cells were detached with trypsin for 5 minutes. Cells were then harvested, washed with complete RPMI 1640, spun down, and resuspended in RPMI 1640 (containing 2% heat inactivated FBS, penicillin (100 units/ml) and streptomycin (100 μg/ml). The cells were plated in the 384-well assay plate containing the spotted compounds at a density of 50,000 cells/well (final assay volume 50 μl). Cells were incubated with compounds for 1 hour and then stimulated with gramicidin (5 μM) (Enzo) for 2 hours. Plates were then centrifuged at 340 g for 5 min. Cell free supernatant ([…]) was collected using a 96-channel PlateMaster (Gilson) and the production of IL-1β was evaluated by HTRF (cisbio). The plates were incubated for 18 h at 4° C. and read using the preset HTRF program (donor emission at 620 nm, acceptor emission at 668 nm) of the SpectraMax i3x spectrophotometer (Molecular Devices, software SoftMax 6). A vehicle only control and a dose titration of CRID3 (100-0.0017 μM) were run concurrently with each experiment.
Procedure 2: […] Production in PMA-Differentiated THP-1 Cells Stimulated with Gramicidin
THP-1 cells were purchased from the American Type Culture Collection and sub-cultured according to instructions from the supplier. Prior to experiments, cells were cultured in complete RPMI 1640 (containing 10% heat inactivated FBS, penicillin (100 units/ml) and streptomycin (100 μg/ml)), and maintained in log phase prior to experimental setup. Prior to the experiment THP-1 were treated with PMA (Phorbol 12-myristate 13-acetate) (20 ng/ml) for 16-18 hours. Compounds were dissolved in dimethyl sulfoxide (DMSO) to generate a 30 mM stock. On the day of the experiment the media was removed and adherent cells were detached with trypsin for 5 minutes. Cells were then harvested, washed with complete RPMI 1640, spun down, resuspended in RPMI 1640 (containing 2% heat inactivated FBS, penicillin (100 units/ml) and streptomycin (100 μg/ml). The cells were plated in a 384-well plate at a density of 50,000 cells/well (final assay volume 50 μl). Compounds were first dissolved in assay medium to obtain a 5× top concentration of 500 μM. 10 step dilutions (1:3) were then undertaken in assay medium containing 1.67% DMSO. 5× compound solutions were added to the culture medium to achieve desired final concentration (e.g. 100, 33, 11, 3.7, 1.2, 0.41, 0.14, 0.046, 0.015, 0.0051, 0.0017 μM). Final DMSO concentration was at 0.37%. Cells were incubated with compounds for 1 hour and then stimulated with gramicidin (5 μM) (Enzo) for 2 hours. Plates were then centrifuged at 340 g for 5 min. Cell free supernatant (40 μL) was collected using a 96-channel PlateMaster (Gilson) and the production of IL-1β was evaluated by HTRF (cisbio). A vehicle only control and a dose titration of CRID3 (100-0.0017 μM) were run concurrently with each experiment. […]

Row | IC50 | Structure (SMILES)
1 | 5 to 30 µM | CC(CN(C)C)CS(N)(=O)=NC(=O)Nc1c2c(cc3c1CCC3)CCC2 (centres unmarked) [Compound 123, 3-(dimethylamino)-N′-((1,2,3,5,6,7-hexahydro-s-indacen-4-yl)carbamoyl)-2-methylpropane-1-sulfonimidamide]
2 | 5 to 30 µM | CC(CN(C)C)CS(N)(=O)=NC(=O)Nc1c2c(cc3c1CCC3)CCC2 (centres unmarked) [Compound 121]
3 | 5 to 30 µM | NS(=O)(=NC(=O)Nc1c2c(cc3c1CCC3)CCC2)C1CC1 (single isomer, unassigned) [Compound 155]
4 | 1 to 5 µM | CC(C)(O)c1ccc(CS(N)(=O)=NC(=O)Nc2c3c(cc4c2CCC4)CCC3)cc1 (single isomer, unassigned) [Compound 165a]

Same assay, conditions: Average IC50, hTHP-1 assay containing 2% fetal bovine serum; Table 10, numeric values

Row | IC50 | Structure (SMILES)
5 | > 30 µM | CN1CCC(S(N)(=O)=NC(=O)Nc2c3c(cc4c2CCC4)CCC3)CC1 (centres unmarked) [Compound 140]
6 | > 30 µM | CN(C)CC1(S(N)(=O)=NC(=O)Nc2c3c(cc4c2CCC4)CCC3)CC1 (centres unmarked) [Compound 160]
7 | > 30 µM | CC(C)c1cc(F)cc(C(C)C)c1CC(=O)N=S(N)(=O)C1CCCC1 (centres unmarked) [Compound 306]
8 | > 30 µM | CC(CN(C)C)CS(N)(=O)=NC(=O)Nc1c2c(cc3c1CCC3)CCC2 (single isomer, unassigned) [Compound 127, 3-(dimethylamino)-N′-((1,2,3,5,6,7-hexahydro-s-indacen-4-yl)carbamoyl)-2-methylpropane-1-sulfonimidamide]
9 | > 30 µM | CC1(S(N)(=O)=NC(=O)Nc2c3c(cc4c2CCC4)CCC3)CC1 (centres unmarked) [Compound 163]
10 | > 30 µM | NS(=O)(=NC(=O)Nc1c2c(cc3c1CCC3)CCC2)C1CCC1 (single isomer, unassigned) [Compound 146]
11 | > 30 µM | NS(=O)(=NC(=O)Nc1c2c(cc3c1CCC3)CCC2)C1CCCC1 (centres unmarked) [Compound 152]

Same assay, conditions: Homo sapiens, THP-1, Average IC50, hTHP-1 assay containing 2% fetal bovine serum; Table 3B, class symbols

Row | IC50 | Structure (SMILES)
12 | 5 to 30 µM | CC(C)c1cc(C#N)cc(C(C)C)c1CC(=O)NS(=O)(=O)N1CCC(CN(C)C)CC1 [Compound 202B, 2-(4-cyano-2,6-diisopropylphenyl)-N-((4-((dimethylamino)methyl)piperidin-1-yl)sulfonyl) acetamide]
13 | 5 to 30 µM | CN(C)S(N)(=O)=NC(=O)Nc1c2c(cc3c1CCC3)CCC2 (centres unmarked) [Compound 101B, 3-[amino(dimethylamino)oxo-lambda6-sulfanylidene]-1-(1,2,3,5,6,7-hexahydro-s-indacen-4-yl)urea]
14 | 5 to 30 µM | CC(C)c1cc(C#N)cc(C(C)C)c1CC(=O)NS(=O)(=O)N1CCC(C(C)(C)O)C1 (centres unmarked) [Compound 203B]

Same assay, conditions: Homo sapiens, THP-1, Average IC50, hTHP-1 assay containing 2% fetal bovine serum; Table 10, class symbols

Row | IC50 | Structure (SMILES)
15 | 5 to 30 µM | CS(N)(=O)=NC(=O)Nc1c2c(cc3c1CCC3)CCC2 (single isomer, unassigned) [Compound 117]
16 | 5 to 30 µM | NS(=O)(=NC(=O)Nc1c2c(cc3c1CCC3)CCC2)C1Cc2ccccc2C1 (single isomer, unassigned) [Compound 129]
17 | 5 to 30 µM | NS(=O)(=NC(=O)Nc1c2c(cc3c1CCC3)CCC2)C1Cc2ccccc2C1 (centres unmarked) [Compound 139, N′-((1,2,3,5,6,7-hexahydro-s-indacen-4-yl)carbamoy1)-2,3-dihydro-1H-indene-2-sulfonimidamide]
18 | 0.2 to 1 µM | CC1(S(N)(=O)=NC(=O)Nc2c3c(cc4c2CCC4)CCC3)CC1 (centres unmarked) [Compound 162]
19 | 1 to 5 µM | CN1CCC(CS(N)(=O)=NC(=O)Nc2c3c(cc4c2CCC4)CCC3)C1 (centres unmarked) [Compound 112, N′-((1,2,3,5,6,7-hexahydro-s-indacen-4-yl)carbamoy1)-1-(1-methylpyrrolidin-3-yl) methane-sulfonimidamide]
20 | 5 to 30 µM | NS(=O)(=NC(=O)Nc1c2c(cc3c1CCC3)CCC2)C1CC1 (single isomer, unassigned) [Compound 154]

The next lines start with the molecule.

Row | Structure (SMILES) | IC50
21 | CN(C)Cc1ccc(CS(N)(=O)=NC(=O)Nc2c3c(cc4c2CCC4)CCC3)cc1 (centres unmarked) [Compound 104, 1-(4-((dimethylamino)methyl)pheny1)-N′-((1,2,3,5,6,7-hexahydro-s-indacen-4-yl)carbamoyl) methane-sulfonimidamide] | 1 to 5 µM
22 | COC(=O)CCS(=O)(=O)NC(=O)Cc1c(C(C)C)cc(F)cc1C(C)C [Compound 520, methyl 3-(N-(2-(4-fluoro-2,6-diisopropylphenyl)acetyl)sulfamoyl) propanoate] | 1 to 5 µM
23 | CN(C)CCCC(=O)NS(C)(=O)=NC(=O)Nc1c2c(cc3c1CCC3)CCC2 (single isomer, unassigned) [Compound 119, 4-(dimethylamino)-N—(N-((1,2,3,5,6,7-hexahydro-s-indacen-4-yl)carbamoyl)-S-methylsulfonimidoyl)butanamide] | 5 to 30 µM

Same assay, conditions: Homo sapiens, THP-1, Average IC50, hTHP-1 assay containing 2% fetal bovine serum; Table 10, numeric values

Row | IC50 | Structure (SMILES)
24 | > 30 µM | CN1CCC(S(N)(=O)=NC(=O)Nc2c3c(cc4c2CCC4)CCC3)CC1 (centres unmarked) [Compound 137]
25 | > 30 µM | CNS(C)(=O)=NC(=O)Nc1c2c(cc3c1CCC3)CCC2 (centres unmarked) [Compound 103, N′-((1,2,3,5,6,7-hexahydro-s-indacen-4-yl)carbamoy1)-N-methylmethane-sulfonimidamide]
26 | > 30 µM | NS(=O)(=NC(=O)Nc1c2c(cc3c1CCC3)CCC2)C1CCCCC1 (centres unmarked) [Compound 147]
27 | > 30 µM | CN(C)CC1(S(N)(=O)=NC(=O)Nc2c3c(cc4c2CCC4)CCC3)CC1 (centres unmarked) [Compound 158]
28 | > 30 µM | CS(N)(=O)=NC(=O)Nc1c2c(cc3c1CCC3)CCC2 (single isomer, unassigned) [Compound 116]
29 | > 30 µM | CC(CN(C)C)CS(N)(=O)=NC(=O)Nc1c2c(cc3c1CCC3)CCC2 (single isomer, unassigned) [Compound 124, 3-(dimethylamino)-N′-((1,2,3,5,6,7-hexahydro-s-indacen-4-yl)carbamoyl)-2-methylpropane-1-sulfonimidamide]
30 | > 30 µM | CC(CN(C)C)CS(N)(=O)=NC(=O)Nc1c2c(cc3c1CCC3)CCC2 (centres unmarked) [Compound 126, 3-(dimethylamino)-N′-((1,2,3,5,6,7-hexahydro-s-indacen-4-yl)carbamoyl)-2-methylpropane-1-sulfonimidamide]

Continued, molecule first:

Row | Structure (SMILES) | IC50
31 | CC(C)c1cc(F)cc(C(C)C)c1CC(=O)NS(=O)(=O)Cc1cccc(C(=O)O)c1 [Compound 510] | > 100 µM
32 | COC(=O)CCCS(=O)(=O)NC(=O)Cc1c(C(C)C)cc(F)cc1C(C)C [Compound 513] | > 30 µM
33 | CC(C)c1cc(F)cc(C(C)C)c1CC(=O)NS(=O)(=O)Cc1cnn(C)c1 [Compound 528] | > 30 µM
34 | CN(C)Cc1ccc(CS(N)(=O)=NC(=O)Nc2c3c(cc4c2CCC4)CCC3)cc1 (single isomer, unassigned) [Compound 105] | > 30 µM
35 | CC(C)c1ncc(CS(=O)(=O)NC(=O)Cc2c(C(C)C)cc(F)cc2C(C)C)s1 [Compound 505] | > 97.1 µM
36 | CC(C)c1cc(F)cc(C(C)C)c1CC(=O)NS(=O)(=O)CCCc1ccccc1 [Compound 509] | > 30 µM
37 | CC(C)c1cc(F)cc(C(C)C)c1CC(=O)NS(=O)(=O)CC(=O)O [Compound 503] | > 100 µM
38 | CC(C)c1cc(F)cc(C(C)C)c1CC(=O)NS(=O)(=O)CCc1ccccc1 [Compound 516] | > 30 µM
39 | CC(C)c1cc(F)cc(C(C)C)c1CC(=O)NS(=O)(=O)Cc1cccc(CN)c1 [Compound 508] | > 100 µM
40 | CC(C)c1cc(F)cc(C(C)C)c1CC(=O)N=S(N)(=O)C1CCCC1 (centres unmarked) [Compound 304] | > 30 µM
41 | CC(C)c1cc(F)cc(C(C)C)c1CC(=O)NS(=O)(=O)Cc1ccc(C(=O)O)cc1 [Compound 518] | > 100 µM
